Values joined by “and” are separate entries in the source; they are usually repeats but may differ in a detail not shown here. Equal values may be shown once.
Test: Accelerated and long term stability study of TTI-101 (Batch A, Batch B): HPLC assay, purity, impurities and water content after storage at 5° C., 25° C./60% RH, 30° C./65% RH or 40° C./75% RH
Format: physicochemical
Conditions: for Impurities RRT 0.99: RRT of compound of formula (IV); for Impurities RRT 1.06: RRT of Compound 4
Description: Exemplary HPLC conditions: diluent was 0.1% trifluoroacetic acid (TFA) in acetonitrile, Mobile Phase A was 0.05% TFA in water, and Mobile Phase B was 0.05% TFA in acetonitrile, column (Agilent, Eclipse XDB-C18, 3.0×100 mm, particle size 1.8 μm), flow (0.425 mL/min), and detector (280 nm diode array).
Batch A was prepared analogously using Method 3 as described in Example 1. Batch B was prepared according to Method 5 as described in Example 1.
Samples of TTI-101 were stored at 5° C., 25° C./60% RH, 30° C./65% RH, or 40° C./75% RH. TTI-101 was stored in an LDPE bag enclosed with a Nylon cable tie and then transferred to another LDPE bag and enclosed with a Nylon cable tie. The enclosure was put into an HDPE bottle and closed with a polyethylene-lined polypropylene cap. The samples were stored under the above-identified conditions.
The samples were analyzed using HPLC with the exemplary conditions identified above. Relative retention time (RRT) for Compound 5 was about 0.83, Compound 4 was about 1.05-1.06, Compound 6 was about 1.15-1.17, and compound of formula (IV) was about 0.99.
• NA not applicable • NQ ≥0.02% and <0.05% • Avg average • Cmpd compound • — no peak • M month • RRT relative retention time

[1] = 5° C., 0 M, P1/P2, listed as Batch A
[2] = 5° C., 2 M, P1/P2, listed as Batch A
[3] = 5° C., 3 M, P1/P2, listed as Batch A
[4] = 5° C., 12 M, P1/P2, listed as Batch A
[5] = 25° C./60% RH, 0 M, P1/P2, listed as Batch A
[6] = 25° C./60% RH, 2 M, P1/P2, listed as Batch A

Assay (%) (5° C., 0 M, Avg): 99.8% | Impurities RRT 1.06 (Cmpd 4) (5° C., 0 M, Avg): NQ (≥0.02% and <0.05%) | Impurities RRT 1.17 (Cmpd 6) (5° C., 0 M, Avg): 0.13 area % | Impurities RRT 1.32 (5° C., 0 M, Avg): NQ (≥0.02% and <0.05%) | Impurities Total (5° C., 0 M, Avg): 0.1 area % | Purity (%) (5° C., 0 M, Avg): 99.8% | Water Content (%) (5° C., 0 M, Avg): <0.04% | Impurities RRT 0.99 (5° C., 0 M, Avg): NQ (≥0.02% and <0.05%) | Impurities RRT 1.32 (5° C., 0 M, P1/P2): NQ (≥0.02% and <0.05%) | Impurities Total (5° C., 0 M, P1/P2): 0.1 area % | Purity (%) (5° C., 0 M, P1/P2): 99.8% | Water Content (%) (5° C., 0 M, P1/P2): <0.04% | Assay (%) [1]: 99.9% and 99.7% | Impurities RRT 1.17 (Cmpd 6) [1]: 0.13 area % and 0.12 area % | Assay (%) (5° C., 2 M, Avg): 100.2% | Impurities RRT 1.16 (Cmpd 6) (5° C., 2 M, Avg): 0.08 area % | Impurities Total (5° C., 2 M, Avg): 0.1 area % | Purity (%) (5° C., 2 M, Avg): 99.9% | Water Content (%) (5° C., 2 M, Avg): <0.04% | Impurities RRT 0.99 (5° C., 2 M, Avg): NQ (≥0.02% and <0.05%) | Water Content (%) (5° C., 2 M, P1/P2): <0.04% | Assay (%) [2]: 99.7% and 100.7% | Purity (%) [2]: 99.9% and 100.0% | Assay (%) (5° C., 3 M, Avg): 99.9% | Impurities RRT 1.06 (Cmpd 4) (5° C., 3 M, Avg): 0.07 area % | Impurities RRT 1.16 (Cmpd 6) (5° C., 3 M, Avg): 0.22 area % | Impurities Total (5° C., 3 M, Avg): 0.3 area % | Purity (%) (5° C., 3 M, Avg): 99.7% | Water Content (%) (5° C., 3 M, Avg): <0.04% | Impurities RRT 1.16 (Cmpd 6) (5° C., 3 M, P1/P2): 0.22 area % | Impurities Total (5° C., 3 M, P1/P2): 0.3 area % | Purity (%) (5° C., 3 M, P1/P2): 99.7% | Water Content (%) (5° C., 3 M, P1/P2): <0.04% | Assay (%) [3]: 100.2% and 99.5% | Impurities RRT 1.06 (Cmpd 4) [3]: 0.06 area % and 0.07 area % | Assay (%) (5° C., 6 M, Avg): 99.4% | Impurities RRT 1.15 (Cmpd 6) (5° C., 6 M, Avg): 0.13 area % | Impurities Total (5° C., 6 M, Avg): 0.1 area % | Purity (%) (5° C., 6 M, Avg): 99.9% | Water Content (%) (5° C., 6 M, Avg): <0.04% | Impurities RRT 1.15 (Cmpd 6) (5° C., 6 M, P1/P2): 0.13 area % | Impurities Total (5° C., 6 M, P1/P2): 0.1 area % | Purity (%) (5° C., 6 M, P1/P2): 99.9% | Water Content (%) (5° C., 6 M, P1/P2): <0.04% | Assay (%) (5° C., 6 M, P1/P2, listed as Batch A): 100.6% and 98.3% | Assay (%) (5° C., 9 M, Avg): 99.6% | Impurities RRT 1.16 (Cmpd 6) (5° C., 9 M, Avg): 0.12 area % | Impurities Total (5° C., 9 M, Avg): 0.1 area % | Purity (%) (5° C., 9 M, Avg): 99.9% | Water Content (%) (5° C., 9 M, Avg): <0.04% | Assay (%) (5° C., 9 M, P1/P2): 99.6% | Impurities Total (5° C., 9 M, P1/P2): 0.1 area % | Purity (%) (5° C., 9 M, P1/P2): 99.9% | Water Content (%) (5° C., 9 M, P1/P2): <0.04% | Impurities RRT 1.16 (Cmpd 6) (5° C., 9 M, P1/P2, listed as Batch A): 0.12 area % and 0.11 area % | Assay (%) (5° C., 12 M, Avg): 99.2% | Impurities RRT 1.06 (Cmpd 4) (5° C., 12 M, Avg): NQ (≥0.02% and <0.05%) | Impurities RRT 1.16 (Cmpd 6) (5° C., 12 M, Avg): 0.39 area % | Impurities Total (5° C., 12 M, Avg): 0.4 area % | Purity (%) (5° C., 12 M, Avg): 99.6% | Water Content (%) (5° C., 12 M, Avg): 0.04% | Impurities RRT 1.06 (Cmpd 4) (5° C., 12 M, P1/P2): NQ (≥0.02% and <0.05%) | Impurities RRT 1.16 (Cmpd 6) (5° C., 12 M, P1/P2): 0.39 area % | Impurities Total (5° C., 12 M, P1/P2): 0.4 area % | Purity (%) (5° C., 12 M, P1/P2): 99.6% | Assay (%) [4]: 99.1% and 99.2% | Water Content (%) [4]: <0.04% and 0.04% | Assay (%) (5° C., 18 M, Avg): 98.5% | Impurities RRT 1.15 (Cmpd 6) (5° C., 18 M, Avg): 0.10 area % | Impurities Total (5° C., 18 M, Avg): 0.1 area % | Purity (%) (5° C., 18 M, Avg): 99.9% | Water Content (%) (5° C., 18 M, Avg): <0.04% | Impurities RRT 1.15 (Cmpd 6) (5° C., 18 M, P1/P2): 0.10 area % | Impurities Total (5° C., 18 M, P1/P2): 0.1 area % | Purity (%) (5° C., 18 M, P1/P2): 99.9% | Water Content (%) (5° C., 18 M, P1/P2): <0.04% | Impurities RRT 1.06 (5° C., 18 M, P1/P2): NQ (≥0.02% and <0.05%) | Assay (%) (5° C., 18 M, P1/P2, listed as Batch A): 97.9% and 99.2% | Assay (%) (5° C., 24 M, Avg): 99.7% | Impurities RRT 1.16 (Cmpd 6) (5° C., 24 M, Avg): 0.11 area % | Impurities Total (5° C., 24 M, Avg): 0.1 area % | Purity (%) (5° C., 24 M, Avg): 99.9% | Water Content (%) (5° C., 24 M, Avg): <0.04% | Impurities RRT 1.16 (Cmpd 6) (5° C., 24 M, P1/P2): 0.11 area % | Impurities Total (5° C., 24 M, P1/P2): 0.1 area % | Purity (%) (5° C., 24 M, P1/P2): 99.9% | Water Content (%) (5° C., 24 M, P1/P2): <0.04% | Impurities RRT 1.06 (5° C., 24 M, P1/P2): NQ (≥0.02% and <0.05%) | Assay (%) (5° C., 24 M, P1/P2, listed as Batch A): 100.2% and 99.3% | Assay (%) (25° C./60% RH, 0 M, Avg): 99.8% | Impurities RRT 1.06 (Cmpd 4) (25° C./60% RH, 0 M, Avg): NQ (≥0.02% and <0.05%) | Impurities RRT 1.17 (Cmpd 6) (25° C./60% RH, 0 M, Avg): 0.13 area % | Impurities RRT 1.32 (25° C./60% RH, 0 M, Avg): NQ (≥0.02% and <0.05%) | Impurities Total (25° C./60% RH, 0 M, Avg): 0.1 area % | Purity (%) (25° C./60% RH, 0 M, Avg): 99.8% | Water Content (%) (25° C./60% RH, 0 M, Avg): <0.04% | Impurities RRT 0.99 (25° C./60% RH, 0 M, Avg): NQ (≥0.02% and <0.05%) | Impurities RRT 1.32 (25° C./60% RH, 0 M, P1/P2): NQ (≥0.02% and <0.05%) | Impurities Total (25° C./60% RH, 0 M, P1/P2): 0.1 area % | Purity (%) (25° C./60% RH, 0 M, P1/P2): 99.8% | Water Content (%) (25° C./60% RH, 0 M, P1/P2): <0.04% | Assay (%) [5]: 99.9% and 99.7% | Impurities RRT 1.17 (Cmpd 6) [5]: 0.13 area % and 0.12 area % | Assay (%) (25° C./60% RH, 2 M, Avg): 99.1% | Impurities RRT 0.71 (25° C./60% RH, 2 M, Avg): 0.08 area % | Impurities RRT 0.92 (25° C./60% RH, 2 M, Avg): NQ (≥0.02% and <0.05%) | Impurities RRT 1.16 (Cmpd 6) (25° C./60% RH, 2 M, Avg): 0.05 area % | Impurities RRT 1.29 (25° C./60% RH, 2 M, Avg): NQ (≥0.02% and <0.05%) | Impurities Total (25° C./60% RH, 2 M, Avg): 0.1 area % | Purity (%) (25° C./60% RH, 2 M, Avg): 99.9% | Water Content (%) (25° C./60% RH, 2 M, Avg): <0.04% | Water Content (%) (25° C./60% RH, 2 M, P1/P2): <0.04% | Assay (%) [6]: 98.9% and 99.3% | Impurities Total [6]: 0.05 area % and 0.1 area % | Purity (%) [6]: 99.9% and 99.8% | Assay (%) (25° C./60% RH, 3 M, Avg): 99.5% | Impurities RRT 1.06 (Cmpd 4) (25° C./60% RH, 3 M, Avg): 0.07 area % | Impurities RRT 1.16 (Cmpd 6) (25° C./60% RH, 3 M, Avg): 0.22 area % | Impurities Total (25° C./60% RH, 3 M, Avg): 0.3 area % | Purity (%) (25° C./60% RH, 3 M, Avg): 99.7% | Water Content (%) (25° C./60% RH, 3 M, Avg): <0.04% | Impurities RRT 1.06 (Cmpd 4) (25° C./60% RH, 3 M, P1/P2): 0.07 area % | Impurities RRT 1.16 (Cmpd 6) (25° C./60% RH, 3 M, P1/P2): 0.22 area % | Impurities Total (25° C./60% RH, 3 M, P1/P2): 0.3 area %
Structure (SMILES): COc1ccc(S(=O)(=O)Nc2cc(-c3c(O)ccc4ccccc34)c(O)c3ccccc23)cc1 [TTI-101]

From patent US20240033234A1, “THERAPEUTIC COMPOUNDS, FORMULATIONS, AND USE THEREOF” (Tvardi Therapeutics, Inc., priority 2022, published 2024)
